# Experimental data from patent publication US4889953A, “Glycerol derivatives, their production and use” (Takeda Chemical Industries, Ltd., priority 1986, dated 1989).
# Experiments:
# Sarcoma 180 cells [1] = test: Antitumor action, Sarcoma 180 intraperitoneal in ICR mice, life-span and survivors on 40th day (Test Example 1); format: in vivo; details: 0.33 mg/mouse i.p. three times
# Description: Antitumor action of the compounds in Working Examples
# ICR mice (a group consisting of five mice) were inoculated intraperitoneally with 1×10^5 Sarcoma 180 cells per mouse, and then given intraperitoneally 0.33 mg/mouse of a compound dissolved in physiological saline, three times, i.e. 1 hour, 1 day and 2 days after inoculation. Reference compound IV, Va or Vb was given to mice under the same conditions. Shown in Table 1 are the life-span prolongation ratio against the untreated control group and the number of survived mice on the 40th day after the initiation of the test.
# [2] = unlike PAF; cited from earlier work
# [3] = tested on: Platelet aggregation caused by PAF; test: Inhibition of PAF-induced platelet aggregation in rabbit PRP (Test Example 5); format: cell-based; details: Oryctolagus cuniculus, PAF 1×10^-8 M, read-out: inhibition ratio (%) of PAF-induced platelet aggregation
# Description: Blood was collected directly from a male rabbit, using a syringe containing 3.15% of citric acid (at a ratio of 1 part to 9 parts of blood) as an anticoagulant, and centrifuged at 800 rpm for 10 minutes at room temperature to obtain platelet rich plasma (PRP). The remaining blood was centrifuged further at 3000 rpm for 10 minutes to obtain platelet poor plasma (PPP) as the supernatant. By dilution of PRP with PPP, the platelet count was adjusted to about 500,000 cells/μl. After 250 μl of the resulting PRP was stirred at 37° C. for 2 minutes, a certain amount of the test compound was added, and the mixture was stirred for further 2 minutes, and then 1×10^-8 M of PAF was added. Platelet aggregation was measured by using a platelet aggregometer (manufactured by Rika Denki Co. in Japan). The aggregation-inhibiting activity of a test compound was determined from the inhibition ratio against maximal transmittance (maximal aggregation ratio) caused by PAF in the control PRP.
# [4] = tested on: mouse mammary carcinoma cells MM46; test: Antitumor action, MM46 intraperitoneal in C3H mice, life-span and survivors on 40th day (Test Example 3); format: in vivo; details: 0.25 mg/mouse once a day for 4 days
# Description: (§1) Antitumor action of the compound of Working Example 8
# C3H mice (a group consisting of 5 mice) were inoculated intraperitoneally with 1×10^4 mouse mammary carcinoma cells MM46 per mouse, and given 0.25 mg/mouse of the compound of Working Example 8 dissolved in physiological saline once a day for 4 consecutive days starting from the second day after the inoculation. The Reference compound (IV) was given under the same conditions. Shown in Table 3 are the life-span prolongation ratio against the untreated control group and the number of survived mice on the 40th day after initiation of the test.
# Sarcoma 180 cells [5] = test: Antitumor action, Sarcoma 180 subcutaneous in ICR mice, intravenous dosing, tumor proliferation inhibition (Test Example 2); format: in vivo; details: 0.3 mg/mouse i.v. 9 times; tumor weight after 21 days
# Description: as §1
# ICR mice (a group consisting of 5 mice) were inoculated subcutaneously with 1×10^6 Sarcoma 180 cells per mouse, and given intravenously 0.03 mg/mouse or 0.3 mg/mouse of the compound of Working Example 8 dissolved in physiological saline 9 times in total, i.e. 8, 9, 10, 13, 14, 15, 16, 17, and 20 days after inoculation. The Reference compound (IV), 0.3 mg/mouse, was given under the same conditions. After 21 days, the tumor tissue was extirpated and the tumor weight was weighed. Shown in Table 2 is tumor proliferation inhibition ratio as compared with the untreated control group.
# [6] = due to PAF-related structure; cited from earlier work
smiles,measurement,setting,value
"CCCCCCCCCCCCCCCCCCOCC(COP(=O)([O-])OCC[N+](C)(C)C)OC (stereo not shown) [Compound IV, reference compound]",No. of survivors/No. of mice tested,Sarcoma 180 cells [1],0/5
same,"Life-span prolongation ratio (T/C, %)",Sarcoma 180 cells [1]; only related to mice found dead,162%
same,antitumor actions,[2],antitumor actions
same,inhibition at 30 µM,[3]; 3 × 10^-5 M,0%
same,inhibition at 3 µM,[3]; 3 × 10^-6 M,0%
same,inhibition at 0.3 µM,[3]; 3 × 10^-7 M,0%
same,No. of survivors/No. of mice tested,[4],0/5
same,"Life-span prolongation ratio (T/C, %)",[4]; survivors not included,155%
same,Inhibition ratio (1-T/C) (%),Sarcoma 180 cells [5],58%
same,PAF-like actions,[6],"serotonin liberation, bronchial constriction, platelet aggregation, and blood pressure lowering"
